In ChEMBL document CHEMBL4431323, “Synthesis and carbonic anhydrase inhibitory effects of new N-glycosylsulfonamides incorporating the phenol moiety” (Bioorg Med Chem Lett, 2016):

Legend:
[1] = target: Carbonic anhydrase 9 (Homo sapiens, UniProt Q16790); test: Inhibition of human carbonic anhydrase 9 incubated for 15 mins prior to testing by stopped flow CO2 hydration assay
[2] = target: Carbonic anhydrase 12 (Homo sapiens, UniProt O43570); test: Inhibition of human carbonic anhydrase 12 incubated for 15 mins prior to testing by stopped flow CO2 hydration assay
Chain of Carbonic anhydrase 12 (O43570 whole entry): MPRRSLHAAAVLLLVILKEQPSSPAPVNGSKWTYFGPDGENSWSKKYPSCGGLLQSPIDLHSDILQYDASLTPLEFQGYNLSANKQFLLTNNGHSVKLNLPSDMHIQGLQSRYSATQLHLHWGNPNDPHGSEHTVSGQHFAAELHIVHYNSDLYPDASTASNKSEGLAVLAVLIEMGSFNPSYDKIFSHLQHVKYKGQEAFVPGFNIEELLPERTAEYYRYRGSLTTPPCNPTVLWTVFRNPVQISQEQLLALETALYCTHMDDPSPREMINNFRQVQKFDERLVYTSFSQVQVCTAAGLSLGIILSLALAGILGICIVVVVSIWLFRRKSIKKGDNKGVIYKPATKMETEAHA

Row | Structure (SMILES) | Ki [1] [µM] | Ki [2] [µM]
1 | CC(=O)OC[C@H]1O[C@@H](NS(=O)(=O)c2ccc(O)cc2)C=C[C@H]1OC(C)=O | > 50 | > 50
2 | O=S(=O)(NC1C=C[C@H](O)[C@@H](CO)O1)c1ccc(O)cc1 (stereo partly drawn) | > 50 | > 50
3 | O=S(=O)(N[C@H]1C=C[C@@H](O)[C@@H](CO)O1)c1ccc(O)cc1 | > 50 | > 50
4 | CC(=O)OC[C@H]1OC(NS(=O)(=O)c2ccc(O)cc2)C(OC(C)=O)=C[C@@H]1OC(C)=O (stereo partly drawn) | > 50 | > 50
5 | O=S(=O)(N[C@@H]1C=C[C@@H](O)[C@@H](CO)O1)c1ccc(O)cc1 | > 50 | > 50

Continued, values first:

Row | Ki [1] [µM] | Ki [2] [µM] | Structure (SMILES)
6 | > 50 | > 50 | CC(=O)OC[C@H]1O[C@H](NS(=O)(=O)c2ccc(O)cc2)C=C[C@H]1OC(C)=O
7 | > 50 | > 50 | CC(=O)OC[C@H]1OC(NS(=O)(=O)c2ccc(O)cc2)C=C[C@@H]1OC(C)=O (relative stereo)
8 | > 50 | > 50 | O=C1C[C@H](O)[C@@H](CO)OC1NS(=O)(=O)c1ccc(O)cc1 (stereo partly drawn)
9 | 0.235 | 0.176 | NS(=O)(=O)c1ccc(O)cc1
